“And” between values parts separate entries of the source, which are not always exact repeats. Equal values may be shown once. Read-outs that look alike come from different tables or passages of the source.
Tests used:
Rlig1-AMP = molecular target: T1, Rlig1-AMP (Homo sapiens, UniProt Q8N999); experiment: FRET-based high-throughput screening of inhibitors for Rlig1-AMP; format: biochemical; conditions: for Raw data [w Enyzm]: with enzyme; for Raw data [w/o Enzym]: without enzyme
T1 construct: made in house; host or cells: E. coli BL21 (DE3), pET15b-Rlig1

[1] = ref MedChemExpress, cited from earlier work; for solubility, DMSO: in DMSO
[2] = DMSO; ref MedChemExpress; cited from earlier work
[3] = ultrasonic/warming, ref MedChemExpress, cited from earlier work
[4] = DMSO; ref MedChemExpress; cited from earlier work; remark: listed apart in the source
[5] = sheet HTS hits, difference of raw data w/o and w enzyme
[6] = HTS hits, difference of raw data w/o and w enzyme
[7] = HTS hits, normalised value of 1-D Distance

T1 sequence (Q8N999 whole entry): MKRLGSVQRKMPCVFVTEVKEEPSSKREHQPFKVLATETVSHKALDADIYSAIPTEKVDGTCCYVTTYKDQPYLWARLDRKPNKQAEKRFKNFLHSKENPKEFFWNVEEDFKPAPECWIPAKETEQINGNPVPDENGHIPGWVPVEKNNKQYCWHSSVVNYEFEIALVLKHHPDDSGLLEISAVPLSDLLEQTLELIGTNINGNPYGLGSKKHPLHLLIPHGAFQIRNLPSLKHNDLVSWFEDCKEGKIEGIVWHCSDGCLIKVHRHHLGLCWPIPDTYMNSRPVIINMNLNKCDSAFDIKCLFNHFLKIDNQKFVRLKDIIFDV

| 1-D Distance (Rlig1-AMP; [5]) | Raw data [w Enyzm] (Rlig1-AMP; sheet HTS hits) | Raw data [w/o Enzym] (Rlig1-AMP; sheet HTS hits) | Compound | solubility, DMSO [1] | Raw data [w Enyzm] (Rlig1-AMP; HTS hits) | Raw data [w/o Enzym] (Rlig1-AMP; HTS hits) | solubility, DMSO [3] | 1-D Distance (Rlig1-AMP; [6]) | further results |
| --- | --- | --- | --- | --- | --- | --- | --- | --- | --- |
| 1003 | 7400 | 6397 | CO[C@H]1/C=C/O[C@@]2(C)Oc3c(C)c(O)c4c(O)c(c(/C=N/N5CCN(C6CCCC6)CC5)c(O)c4c3C2=O)NC(=O)/C(C)=C\C=C\[C@H](C)[C@H](O)[C@@H](C)[C@@H](O)[C@@H](C)[C@H](OC(C)=O)[C@@H]1C [Rifapentine] | ≥ 50 mg/mL |  |  |  |  | solubility, H2O ([1]; in H2O): < 0.1 mg/mL |
| 157 | 13928 | 13771 | O=C1c2ccccc2-c2nc3nonc3nc21 [SMER3] | DMSO : 12.5 mg/mL (55.76 mM; Need ultrasonic) |  |  |  |  | 1-D Distance.npi (Rlig1-AMP; sheet HTS hits, MedChemExpress library): 102.522 |
|  |  |  | O=C(O)c1cc(O)c2c(c1)[C@H]([C@H]1c3cc(C(=O)O)cc(O)c3C(=O)c3c(O[C@@H]4O[C@H](CO)[C@@H](O)[C@H](O)[C@H]4O)cccc31)c1cccc(O[C@@H]3O[C@H](CO)[C@@H](O)[C@H](O)[C@H]3O)c1C2=O [Sennoside A] |  | 4442 | 6178 |  |  | 1-D Distance (Rlig1-AMP; HTS hits, difference of raw data without and with enzyme): 1736; solubility [2]: 250 mg/mL and 289.77 mM |
|  |  |  | O=C(O)c1cc(O)c2c(c1)[C@@H]([C@H]1c3cc(C(=O)O)cc(O)c3C(=O)c3c(O[C@@H]4O[C@H](CO)[C@@H](O)[C@H](O)[C@H]4O)cccc31)c1cccc(O[C@@H]3O[C@H](CO)[C@@H](O)[C@H](O)[C@H]3O)c1C2=O [Sennoside B] |  | 3598 | 4706 | 125 mg/mL and 144.89 mM | 1108 |  |
|  |  |  | C[n+]1ccc(-c2c3nc(c(-c4cc[n+](C)cc4)c4ccc([nH]4)c(-c4cc[n+](C)cc4)c4nc(c(-c5cc[n+](C)cc5)c5ccc2[nH]5)C=C4)C=C3)cc1.Cc1ccc(S(=O)(=O)[O-])cc1.Cc1ccc(S(=O)(=O)[O-])cc1.Cc1ccc(S(=O)(=O)[O-])cc1.Cc1ccc(S(=O)(=O)[O-])cc1 [TMPyP4 tosylate] |  | 658 | 698 | 10 mg/mL and 7.33 mM | 40 | solubility, H2O [3]: 25 mg/mL and 18.33 mM; 1-D Distance.npi (Rlig1-AMP; [7]): 106.113 |
|  |  |  | CC1(C)CCC(C)(C)c2cc(NC(=O)c3ccc(C(=O)O)cc3)ccc21 [Tamibarotene] |  | 8958 | 10662 | 25.5 mg/mL and 72.56 mM | 1704 |  |
| 1837 | 8934 | 10771 | CCOc1ccccc1OCCN[C@H](C)Cc1ccc(OC)c(S(N)(=O)=O)c1 [Tamsulosin] | DMSO : 100 mg/mL (244.79 mM; Need ultrasonic) |  |  |  |  |  |
|  |  |  | Cn1nc(-c2ccc(C(F)(F)F)cc2)nc2c(=O)n(C)c(=O)nc1-2 [Walrycin B] |  | 16245 | 17113 |  | 868 | 1-D Distance.npi (Rlig1-AMP; HTS hits, normalized value (npi)): 89.8871; solubility [4]: 11.5 mg/mL and 34.10 mM |
|  |  |  | Heparin (Lithium salt) |  | 12003 | 13115 |  | 1112 | solubility, H2O [3]: H2O : 100 mg/mL (Need ultrasonic); 1-D Distance.npi (Rlig1-AMP; [7]): 83.0264 |

From paper PMC11747885, “Potent inhibitors of the human RNA ligase Rlig1 highlights its role in RNA integrity maintenance under oxidative cellular stress” (Chemical Science, 2025)
